Reference: patent US9290536B2, “C4 monomethyl triterpenoid derivatives and methods of use thereof” (Reata Pharmaceuticals, Inc., priority 2011, dated 2016)

Tested on: IFNγ-induced NO production in RAW264.7
Assay: Suppression of IFNγ-induced NO production in RAW264.7 mouse macrophages (Griess reagent, normalized to WST-1 cell viability)
Format: cell-based
Conditions: RAW264.7 cells, 2 h pre-treatment with drug (0-200 nM), then IFNγ for 24 h
Description: Nitric Oxide Production and Cell Viability. […] On the next day, cells were pre-treated with DMSO or drug (0-200 nM dose range) for 2 hours, and then treated with recombinant mouse IFNγ (R&D Systems) for 24 hours. Nitric Oxide concentration in media was determined using the Griess reagent system (Promega). Cell viability was determined using WST-1 reagent (Roche). IC50 values were determined based on the suppression of IFNγ induced Nitric Oxide production normalized to cell viability.

With `COC(=O)[C@]12CCC(C)(C)C[C@H]1[C@H]1C(=O)C=C3[C@@]4(C)C=CC(=O)[C@@H](C)[C@@H]4CC[C@@]3(C)[C@]1(C)CC2` [TX63832] the IC50 was 149 nM.

For `C[C@@H]1C(=O)C(C#N)=C[C@]2(C)C3=C[C@@H](O)[C@]4(O)[C@@H]5CC(C)(C)CC[C@]5(CO)CC[C@@]4(C)[C@]3(C)CC[C@@H]12` [TX63904], the IC50 was 10.4 nM.

For `C[C@@H]1C(=O)C(C#N)=C[C@]2(C)C3=CC(=O)[C@@H]4[C@@H]5CC(C)(C)CC[C@]5(NC(=O)c5ccccc5)CC[C@@]4(C)[C@]3(C)CC[C@@H]12` [TX63798], the IC50 was 1.5 nM.

`C[C@@H]1C(=O)C(C#N)=C[C@]2(C)C3=CC(=O)[C@@H]4[C@@H]5CC(C)(C)CC[C@]5(C(=O)N5CCCCC5)CC[C@@]4(C)[C@]3(C)CC[C@@H]12` [TX63880] gave an IC50 of 1.6 nM.

For `CC(C)OC(=O)N[C@]12CCC(C)(C)C[C@H]1[C@H]1C(=O)C=C3[C@@]4(C)C=C(C#N)C(=O)[C@@H](C)[C@@H]4CC[C@@]3(C)[C@]1(C)CC2` [TX63819], the IC50 was 2.7 nM.

For `C[C@@H]1C(=O)C(C#N)=C[C@]2(C)[C@H]3CC(=O)[C@@H]4[C@@H]5CC(C)(C)CC[C@]5(CO)CC[C@@]4(C)[C@]3(C)CC[C@@H]12` [TX63839], the IC50 was 4 nM.

`C[C@@H]1C(=O)C(C#N)=C[C@]2(C)C3=CC(=O)[C@@H]4[C@@H]5CC(C)(C)CC[C@]5(COC(=O)CN)CC[C@@]4(C)[C@]3(C)CC[C@@H]12` [TX63717] gave an IC50 of 0.6 nM.

For `C[C@@H]1C(=O)C(C#N)=C[C@]2(C)C3=CC(=O)[C@@H]4[C@@H]5CC(C)(C)CC[C@]5(CCC(=O)NC5COC5)CC[C@@]4(C)[C@]3(C)CC[C@@H]12` [TX63914], the IC50 was 0.4 nM.

`COCCC[C@]12CCC(C)(C)C[C@H]1[C@H]1C(=O)C=C3[C@@]4(C)C=C(C#N)C(=O)[C@@H](C)[C@@H]4CC[C@@]3(C)[C@]1(C)CC2` [TX63919] gave an IC50 of 1.4 nM.

`COC(=O)[C@]12CCC(C)(C)C[C@H]1[C@H]1C(=O)C=C3[C@@]4(C)C=C(C#N)C(=O)C(C)=C4CC[C@@]3(C)[C@]1(C)CC2` [TX63448] was tested, and the IC50 was 75 nM.

Work on `COC(=O)CC[C@]12CCC(C)(C)C[C@H]1[C@H]1C(=O)C=C3[C@@]4(C)C=C(C#N)C(=O)[C@@H](C)[C@@H]4CC[C@@]3(C)[C@]1(C)CC2` [TX63867] yielded an IC50 of 1.3 nM.

Molecule `C[C@@H]1C(=O)C(C#N)=C[C@]2(C)C3=CC(=O)[C@@]4(C)[C@@H]5CC(C)(C)CC[C@]56CC[C@]4(OC6=O)[C@]3(C)CC[C@@H]12` [TX63556] has an IC50 of 69 nM.

`COC(=O)C1=C[C@]2(C)C3=CC(=O)[C@@H]4[C@@H]5CC(C)(C)CC[C@]5(C(=O)OC)CC[C@@]4(C)[C@]3(C)CC[C@H]2[C@H](C)C1=O` [TX63788] showed an IC50 of 33.5 nM.

With `CCOC(=O)N[C@]12CCC(C)(C)C[C@H]1[C@H]1C(=O)C=C3[C@@]4(C)C=C(C#N)C(=O)[C@@H](C)[C@@H]4CC[C@@]3(C)[C@]1(C)CC2` [TX63800] the IC50 was 0.9 nM.

With `CC(=O)OCCC[C@]12CCC(C)(C)C[C@H]1[C@H]1C(=O)C=C3[C@@]4(C)C=C(C#N)C(=O)[C@@H](C)[C@@H]4CC[C@@]3(C)[C@]1(C)CC2` [TX63920] the IC50 was 0.9 nM.

`COCc1nnc([C@]23CCC(C)(C)C[C@H]2[C@H]2C(=O)C=C4[C@@]5(C)C=C(C#N)C(=O)[C@@H](C)[C@@H]5CC[C@@]4(C)[C@]2(C)CC3)o1` [TX63790] gave an IC50 of 1.1 nM.

`C[C@@H]1C(=O)C(C#N)=C[C@]2(C)C3=CC(=O)[C@@H]4[C@@H]5CC(C)(C)CC[C@]5(F)CC[C@@]4(C)[C@]3(C)CC[C@@H]12` [TX63936] showed an IC50 of 1.1 nM.

Work on `CCC(=O)N[C@]12CCC(C)(C)C[C@H]1[C@H]1C(=O)C=C3[C@@]4(C)C=C(C#N)C(=O)[C@@H](C)[C@@H]4CC[C@@]3(C)[C@]1(C)CC2` [TX63864] yielded an IC50 of 1.9 nM.

Work on `Cc1cn(C(=O)[C@]23CCC(C)(C)C[C@H]2[C@H]2C(=O)C=C4[C@@]5(C)C=C(C#N)C(=O)[C@@H](C)[C@@H]5CC[C@@]4(C)[C@]2(C)CC3)c(C)n1` [TX63822] yielded an IC50 of 0.7 nM.

`CC(=O)OC[C@]12CCC(C)(C)C[C@H]1[C@H]1C(=O)C[C@@H]3[C@@]4(C)C=C(C#N)C(=O)[C@@H](C)[C@@H]4CC[C@@]3(C)[C@]1(C)CC2` [TX63840] showed an IC50 of 2.9 nM.

`CCNC(=O)N[C@]12CCC(C)(C)C[C@H]1[C@H]1C(=O)C=C3[C@@]4(C)C=C(C#N)C(=O)[C@@H](C)[C@@H]4CC[C@@]3(C)[C@]1(C)CC2` [TX63826] was tested, and the IC50 was 4.4 nM.

In the case of `C[C@@H]1C(=O)C(C#N)=C[C@]2(C)C3=CC(=O)[C@@H]4[C@@H]5CC(C)(C)CC[C@]5(NC(=O)N(C)C)CC[C@@]4(C)[C@]3(C)CC[C@@H]12` [TX63875], the IC50 is reported as 1.3 nM.

For `COC(=O)[C@]12CCC(C)(C)C[C@H]1[C@H]1C(=O)C=C3[C@@]4(C)C=C(C(=O)O)C(=O)[C@@H](C)[C@@H]4CC[C@@]3(C)[C@]1(C)CC2` [TX63830], the IC50 was 4.6 nM.

Molecule `C[C@@H]1C(=O)C(C#N)=C[C@]2(C)C3=CC(=O)[C@@H]4[C@@H]5CC(C)(C)CC[C@]5(NC=O)CC[C@@]4(C)[C@]3(C)CC[C@@H]12` [TX63681] has an IC50 of 1.6 nM.

Molecule `C[C@@H]1C(=O)C(C#N)=C[C@]2(C)C3=CC(=O)[C@@H]4[C@@H]5CC(C)(C)CC[C@]5(CCCO)CC[C@@]4(C)[C@]3(C)CC[C@@H]12` [TX63918] has an IC50 of 0.5 nM.

For `C[C@@H]1C(=O)C(C#N)=C[C@]2(C)C3=CC(=O)[C@@H]4[C@@H]5CC(C)(C)CC[C@]5(CCC(=O)O)CC[C@@]4(C)[C@]3(C)CC[C@@H]12` [TX63891], the IC50 was 1.3 nM.

In the case of `COC(=O)[C@]12CCC(C)(C)C[C@H]1C1=CC[C@@H]3[C@@]4(C)CC(C#N)=C(OC(C)=O)[C@@H](C)[C@@H]4CC[C@@]3(C)[C@]1(C)CC2` [TX63795], the IC50 is reported as > 200 nM.

`C/C(=N\O)NC(=O)[C@]12CCC(C)(C)C[C@H]1[C@H]1C(=O)C=C3[C@@]4(C)C=C(C#N)C(=O)[C@@H](C)[C@@H]4CC[C@@]3(C)[C@]1(C)CC2` [TX63786] was tested, and the IC50 was 2.2 nM.

In the case of `C[C@@H]1C(=O)C(C#N)=C[C@]2(C)C3=CC(=O)[C@@H]4[C@@H]5CC(C)(C)CC[C@]5(C(=O)NNC=O)CC[C@@]4(C)[C@]3(C)CC[C@@H]12` [TX63785], the IC50 is reported as 20 nM.

Molecule `C[C@@H]1C(=O)C(C#N)=C[C@]2(C)C3=CC(=O)[C@@H]4[C@@H]5CC(C)(C)CC[C@]5(OC(N)=O)CC[C@@]4(C)[C@]3(C)CC[C@@H]12` [TX63929] has an IC50 of 0.5 nM.

Work on `Cc1nnc(CC[C@]23CCC(C)(C)C[C@H]2[C@H]2C(=O)C=C4[C@@]5(C)C=C(C#N)C(=O)[C@@H](C)[C@@H]5CC[C@@]4(C)[C@]2(C)CC3)o1` [TX63916] yielded an IC50 of 0.4 nM.

Molecule `CCOC(=O)[C@]12CCC(C)(C)C[C@H]1[C@H]1C(=O)C=C3[C@@]4(C)C=C(C#N)C(=O)[C@@H](C)[C@@H]4CC[C@@]3(C)[C@]1(C)CC2` [TX63820] has an IC50 of 1.5 nM.

`C[C@@H]1C(=O)C(C#N)=C[C@]2(C)[C@H]3CC(=O)[C@@H]4[C@@H]5CC(C)(C)CC[C@]5(C#N)CC[C@@]4(C)[C@]3(C)CC[C@@H]12` [TX63817] showed an IC50 of 2.6 nM.

Molecule `CC(=O)OC[C@]12CCC(C)(C)C[C@H]1[C@@]1(O)C(=O)C=C3[C@@]4(C)C=C(C#N)C(=O)[C@@H](C)[C@@H]4CC[C@@]3(C)[C@]1(C)CC2` [TX63909] has an IC50 of 1.4 nM.

With `COC(=O)[C@]12CCC(C)(C)C[C@H]1[C@H]1C(=O)C=C3[C@@]4(C)CC(C#N)=C(O)[C@@H](C)[C@@H]4CC[C@@]3(C)[C@]1(C)CC2` [TX63778] the IC50 was 50 nM.

For `COC(=O)[C@]12CCC(C)(C)C[C@H]1[C@H]1C(=O)C=C3[C@@]4(C)C=C(I)C(=O)[C@@H](C)[C@@H]4CC[C@@]3(C)[C@]1(C)CC2` [TX63833], the IC50 was 88 nM.

`CCNC(=O)OCCC[C@]12CCC(C)(C)C[C@H]1[C@H]1C(=O)C=C3[C@@]4(C)C=C(C#N)C(=O)[C@@H](C)[C@@H]4CC[C@@]3(C)[C@]1(C)CC2` [TX63982] gave an IC50 of 3.5 nM.

With `CCCCNC(=O)[C@]12CCC(C)(C)C[C@H]1[C@H]1C(=O)C=C3[C@@]4(C)C=C(C#N)C(=O)[C@@H](C)[C@@H]4CC[C@@]3(C)[C@]1(C)CC2` [TX63877] the IC50 was 1.3 nM.

With `CONC(=O)[C@]12CCC(C)(C)C[C@H]1[C@H]1C(=O)C=C3[C@@]4(C)C=C(C#N)C(=O)[C@@H](C)[C@@H]4CC[C@@]3(C)[C@]1(C)CC2` [TX63882] the IC50 was 1.6 nM.

For `C[C@@H]1C(=O)C(C#N)=C[C@]2(C)[C@H]3CC(=O)[C@@H]4[C@@H]5CC(C)(C)CC[C@]5(COCF)CC[C@@]4(C)[C@]3(C)CC[C@@H]12` [TX63860], the IC50 was 4.1 nM.

For `COC(=O)[C@]12CCC(C)(C)C[C@H]1C1=CC[C@@H]3[C@@]4(C)C=C(C#N)C(=O)[C@@H](C)[C@@H]4CC[C@@]3(C)[C@]1(C)CC2` [TX63779], the IC50 was 44 nM.

With `C[C@@H]1C(=O)C(C#N)=C[C@]2(C)C3=C[C@@H](O)[C@@H]4[C@@H]5CC(C)(C)CC[C@]5(CO)CC[C@@]4(C)[C@]3(C)CC[C@@H]12` [TX63923] the IC50 was 2.5 nM.

`C[C@@H]1C(=O)C(C#N)=C[C@]2(C)C3=CC(=O)[C@@H]4[C@@H]5CC(C)(C)CC[C@]5(COC(=O)CNC(=O)OC(C)(C)C)CC[C@@]4(C)[C@]3(C)CC[C@@H]12` [TX63716] showed an IC50 of 3.2 nM.

Molecule `C=C1C(=O)C(C#N)=C[C@]2(C)C3=CC(=O)[C@@H]4[C@@H]5CC(C)(C)CC[C@]5(C(=O)OC)CC[C@@]4(C)[C@]3(C)CC[C@@H]12` [TX63911] has an IC50 of 10 nM.

Work on `CCOC(=O)[C@]12CCC(C)(C)C[C@H]1[C@@]1(O)C(=O)C=C3[C@@]4(C)C=C(C#N)C(=O)[C@@H](C)[C@@H]4CC[C@@]3(C)[C@]1(C)CC2` [TX63901] yielded an IC50 of 1.3 nM.

In the case of `CNC(=O)CC[C@]12CCC(C)(C)C[C@H]1[C@H]1C(=O)C=C3[C@@]4(C)C=C(C#N)C(=O)[C@@H](C)[C@@H]4CC[C@@]3(C)[C@]1(C)CC2` [TX63886], the IC50 is reported as 0.3 nM.

Molecule `C[C@@H]1C(=O)C(C#N)=C[C@]2(C)C3=CC(=O)[C@@H]4[C@@H]5CC(C)(C)CC[C@@H]5CC[C@@]4(C)[C@]3(C)CC[C@@H]12` [TX63869] has an IC50 of 3.8 nM.
